Assay results: ChEMBL document CHEMBL4507267 (2021)

What was measured:
[1] = tested on: Epidermal growth factor receptor (Homo sapiens), P00533 [UNDEFINED MUTATION]; settings: Compound concentration 1000.0 nM
[2] = biological target: STE20-like serine/threonine-protein kinase (Homo sapiens) (UniProt Q9H2G2); settings: Compound concentration 1000.0 nM
[3] = biological target: Alpha-1D adrenergic receptor (Homo sapiens) (UniProt P25100); settings: Compound concentration 10.0 uM
[4] = biological target: Serine/threonine-protein kinase 3 (Homo sapiens) (UniProt Q13188); settings: Compound concentration 1000.0 nM
[5] = biological target: Casein kinase I isoform epsilon (Homo sapiens) (UniProt P49674); settings: Compound concentration 1000.0 nM
[6] = biological target: Serine/threonine-protein kinase ULK2 (Homo sapiens) (UniProt Q8IYT8); settings: Compound concentration 1000.0 nM
[7] = tested on: Phosphatidylinositol 4,5-bisphosphate 3-kinase catalytic subunit alpha isoform (Homo sapiens), P42336 [C420R]; settings: Compound concentration 1000.0 nM
[8] = biological target: Casein kinase I isoform gamma-2 (Homo sapiens) (UniProt P78368); settings: Compound concentration 1000.0 nM
[9] = biological target: Ribosomal protein S6 kinase alpha-4 (Homo sapiens) (UniProt O75676); settings: Compound concentration 1000.0 nM
[10] = biological target: Serine/threonine-protein kinase Nek11 (Homo sapiens) (UniProt Q8NG66); settings: Compound concentration 1000.0 nM
[11] = biological target: Mitogen-activated protein kinase 8 (Homo sapiens) (UniProt P45983); settings: Compound concentration 1000.0 nM
[12] = biological target: Serine/threonine-protein kinase D1 (Homo sapiens) (UniProt Q15139); settings: Compound concentration 1000.0 nM
[13] = biological target: Tyrosine-protein kinase JAK1 (Homo sapiens) (UniProt P23458); settings: Compound concentration 1000.0 nM
[14] = biological target: Mitogen-activated protein kinase 4 (Homo sapiens) (UniProt P31152); settings: Compound concentration 1000.0 nM
[15] = biological target: Serine/threonine-protein kinase NLK (Homo sapiens) (UniProt Q9UBE8); settings: Compound concentration 1000.0 nM
[16] = biological target: Muscarinic acetylcholine receptor M1 (Homo sapiens) (UniProt P11229); settings: Compound concentration 10.0 uM
[17] = biological target: Cyclin-dependent kinase 11B (Homo sapiens) (UniProt P21127); settings: Compound concentration 1000.0 nM
[18] = biological target: Cyclin-dependent kinase 8 (Homo sapiens) (UniProt P49336); settings: Compound concentration 1000.0 nM
[19] = biological target: Receptor-interacting serine/threonine-protein kinase 1 (Homo sapiens) (UniProt Q13546); settings: Compound concentration 1000.0 nM
[20] = biological target: Cyclin-dependent kinase 9 (Homo sapiens) (UniProt P50750); settings: Compound concentration 1000.0 nM
[21] = biological target: Serine/threonine-protein kinase DCLK3 (Homo sapiens) (UniProt Q9C098); settings: Compound concentration 1000.0 nM
[22] = biological target: Cyclin-dependent kinase-like 5 (Homo sapiens) (UniProt O76039); settings: Compound concentration 1000.0 nM
[23] = biological target: Protein kinase C epsilon type (Homo sapiens) (UniProt Q02156); settings: Compound concentration 1000.0 nM
[24] = biological target: Death-associated protein kinase 1 (Homo sapiens) (UniProt P53355); settings: Compound concentration 1000.0 nM
[25] = biological target: 5-hydroxytryptamine receptor 3A (Homo sapiens) (UniProt P46098); settings: Compound concentration 10.0 uM
[26] = tested on: Epidermal growth factor receptor (Homo sapiens), P00533 [G719S]; settings: Compound concentration 1000.0 nM
[27] = biological target: Protein kinase C eta type (Homo sapiens) (UniProt P24723); settings: Compound concentration 1000.0 nM
[28] = biological target: Phosphatidylinositol 4,5-bisphosphate 3-kinase catalytic subunit delta isoform (Homo sapiens) (UniProt O00329); settings: Compound concentration 1000.0 nM
[29] = biological target: STE20/SPS1-related proline-alanine-rich protein kinase (Homo sapiens) (UniProt Q9UEW8); settings: Compound concentration 1000.0 nM
[30] = biological target: Serine/threonine-protein kinase SIK3 (Homo sapiens) (UniProt Q9Y2K2); settings: Compound concentration 1000.0 nM
[31] = biological target: Homeodomain-interacting protein kinase 2 (Homo sapiens) (UniProt Q9H2X6); settings: Compound concentration 1000.0 nM
[32] = biological target: Tyrosine-protein kinase JAK1 (Homo sapiens) (UniProt P23458); settings: Compound concentration 1000.0 nM; remark: listed apart in the source
[33] = biological target: Serine/threonine-protein kinase mTOR (Homo sapiens) (UniProt P42345); settings: Compound concentration 1000.0 nM
[34] = biological target: Focal adhesion kinase 1 (Homo sapiens) (UniProt Q05397); settings: Compound concentration 1000.0 nM
[35] = biological target: Inhibitor of nuclear factor kappa-B kinase subunit epsilon (Homo sapiens) (UniProt Q14164); settings: Compound concentration 1000.0 nM
[36] = tested on: Receptor-type tyrosine-protein kinase FLT3 (Homo sapiens), P36888 [UNDEFINED MUTATION]; settings: Compound concentration 1000.0 nM
[37] = biological target: Peripheral plasma membrane protein CASK (Homo sapiens) (UniProt O14936); settings: Compound concentration 1000.0 nM
[38] = tested on: ALK tyrosine kinase receptor (Homo sapiens), Q9UM73 [C1156Y]; settings: Compound concentration 1000.0 nM
[39] = biological target: Serine/threonine-protein kinase 17B (Homo sapiens) (UniProt O94768); settings: Compound concentration 1000.0 nM
[40] = biological target: cAMP-dependent protein kinase catalytic subunit alpha (Homo sapiens) (UniProt P17612); settings: Compound concentration 1000.0 nM
[41] = biological target: Mitogen-activated protein kinase kinase kinase 4 (Homo sapiens) (UniProt Q9Y6R4); settings: Compound concentration 1000.0 nM
[42] = tested on: Phosphatidylinositol 4,5-bisphosphate 3-kinase catalytic subunit alpha isoform (Homo sapiens), P42336 [E545A]; settings: Compound concentration 1000.0 nM
[43] = biological target: Serine/threonine-protein kinase MRCK beta (Homo sapiens) (UniProt Q9Y5S2); settings: Compound concentration 1000.0 nM
[44] = biological target: Serine/threonine-protein kinase NIM1 (Homo sapiens) (UniProt Q8IY84); settings: Compound concentration 1000.0 nM
[45] = biological target: Myosin-IIIa (Homo sapiens) (UniProt Q8NEV4); settings: Compound concentration 1000.0 nM

Chain of Tyrosine-protein kinase JAK1 (Homo sapiens) (P23458 whole entry): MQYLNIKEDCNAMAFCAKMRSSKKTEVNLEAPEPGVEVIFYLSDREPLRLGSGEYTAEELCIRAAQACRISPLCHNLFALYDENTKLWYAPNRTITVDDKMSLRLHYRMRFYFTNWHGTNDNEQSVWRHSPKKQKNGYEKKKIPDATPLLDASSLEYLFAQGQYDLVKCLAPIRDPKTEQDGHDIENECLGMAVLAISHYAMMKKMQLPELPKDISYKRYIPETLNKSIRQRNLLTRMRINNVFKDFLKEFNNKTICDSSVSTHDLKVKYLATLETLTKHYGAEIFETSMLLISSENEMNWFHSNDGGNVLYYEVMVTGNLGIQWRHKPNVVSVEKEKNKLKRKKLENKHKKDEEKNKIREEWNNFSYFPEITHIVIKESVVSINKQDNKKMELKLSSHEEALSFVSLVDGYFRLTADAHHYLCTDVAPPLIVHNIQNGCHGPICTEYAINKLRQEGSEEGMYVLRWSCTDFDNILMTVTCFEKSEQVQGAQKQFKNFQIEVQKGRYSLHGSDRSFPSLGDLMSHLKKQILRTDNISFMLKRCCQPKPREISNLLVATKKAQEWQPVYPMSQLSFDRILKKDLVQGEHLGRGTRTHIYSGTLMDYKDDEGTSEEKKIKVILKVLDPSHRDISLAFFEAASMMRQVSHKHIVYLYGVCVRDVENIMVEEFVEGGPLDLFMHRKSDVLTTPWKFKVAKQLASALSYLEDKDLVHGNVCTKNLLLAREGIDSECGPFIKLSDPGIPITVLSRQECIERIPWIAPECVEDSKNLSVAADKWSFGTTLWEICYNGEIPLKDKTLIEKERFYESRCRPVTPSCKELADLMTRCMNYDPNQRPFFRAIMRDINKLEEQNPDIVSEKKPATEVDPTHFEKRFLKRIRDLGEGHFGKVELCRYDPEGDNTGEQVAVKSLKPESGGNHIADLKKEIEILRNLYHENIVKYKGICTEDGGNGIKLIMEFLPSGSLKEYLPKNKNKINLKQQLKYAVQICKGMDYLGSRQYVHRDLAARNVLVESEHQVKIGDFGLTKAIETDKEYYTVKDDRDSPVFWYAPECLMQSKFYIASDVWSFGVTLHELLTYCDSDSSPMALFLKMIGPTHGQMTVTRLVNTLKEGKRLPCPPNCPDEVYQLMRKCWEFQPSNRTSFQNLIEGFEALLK
Chain of Serine/threonine-protein kinase D1 (Homo sapiens) (Q15139 whole entry): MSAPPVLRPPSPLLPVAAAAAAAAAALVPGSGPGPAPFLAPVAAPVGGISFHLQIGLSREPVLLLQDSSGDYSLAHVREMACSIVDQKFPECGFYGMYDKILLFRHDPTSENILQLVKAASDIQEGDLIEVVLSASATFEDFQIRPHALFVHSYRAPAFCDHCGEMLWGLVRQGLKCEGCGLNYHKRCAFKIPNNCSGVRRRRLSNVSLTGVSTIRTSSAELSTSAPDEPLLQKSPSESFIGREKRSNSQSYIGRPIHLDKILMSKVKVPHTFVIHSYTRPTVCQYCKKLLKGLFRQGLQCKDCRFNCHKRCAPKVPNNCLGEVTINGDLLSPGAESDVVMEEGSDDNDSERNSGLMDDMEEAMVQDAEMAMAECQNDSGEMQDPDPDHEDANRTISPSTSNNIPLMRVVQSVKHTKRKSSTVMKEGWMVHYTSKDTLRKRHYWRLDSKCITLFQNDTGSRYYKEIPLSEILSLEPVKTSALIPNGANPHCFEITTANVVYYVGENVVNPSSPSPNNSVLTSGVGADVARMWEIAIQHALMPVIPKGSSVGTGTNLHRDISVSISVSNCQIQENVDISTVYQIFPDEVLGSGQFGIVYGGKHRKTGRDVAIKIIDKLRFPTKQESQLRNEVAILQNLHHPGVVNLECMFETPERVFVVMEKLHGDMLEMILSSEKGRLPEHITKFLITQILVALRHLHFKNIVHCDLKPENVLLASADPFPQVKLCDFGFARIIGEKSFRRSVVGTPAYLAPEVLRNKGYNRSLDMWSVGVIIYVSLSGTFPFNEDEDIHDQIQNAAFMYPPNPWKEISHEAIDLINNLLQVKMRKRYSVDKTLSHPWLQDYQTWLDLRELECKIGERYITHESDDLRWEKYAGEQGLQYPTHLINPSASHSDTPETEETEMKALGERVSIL
Chain of Cyclin-dependent kinase 11B (Homo sapiens) (P21127 whole entry): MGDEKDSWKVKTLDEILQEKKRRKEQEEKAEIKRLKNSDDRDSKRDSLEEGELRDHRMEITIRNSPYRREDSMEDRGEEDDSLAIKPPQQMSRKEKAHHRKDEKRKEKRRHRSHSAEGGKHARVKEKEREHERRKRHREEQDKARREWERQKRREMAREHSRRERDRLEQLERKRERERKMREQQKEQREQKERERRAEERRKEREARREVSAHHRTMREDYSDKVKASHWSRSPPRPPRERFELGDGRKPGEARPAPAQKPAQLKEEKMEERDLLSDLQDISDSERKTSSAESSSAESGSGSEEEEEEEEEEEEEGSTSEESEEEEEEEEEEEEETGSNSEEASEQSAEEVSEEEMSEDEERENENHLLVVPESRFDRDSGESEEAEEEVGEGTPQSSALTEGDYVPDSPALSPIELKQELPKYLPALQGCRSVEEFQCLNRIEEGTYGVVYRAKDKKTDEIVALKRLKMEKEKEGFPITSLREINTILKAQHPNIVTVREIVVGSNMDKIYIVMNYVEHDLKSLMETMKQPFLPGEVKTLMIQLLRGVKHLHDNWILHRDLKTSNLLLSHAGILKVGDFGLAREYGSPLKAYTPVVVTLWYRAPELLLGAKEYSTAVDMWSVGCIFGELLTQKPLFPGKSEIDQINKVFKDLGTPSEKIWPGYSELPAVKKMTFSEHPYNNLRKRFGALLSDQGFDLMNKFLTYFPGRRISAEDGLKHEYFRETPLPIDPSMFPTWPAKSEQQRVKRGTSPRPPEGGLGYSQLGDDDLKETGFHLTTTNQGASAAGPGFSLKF
Chain of Serine/threonine-protein kinase NIM1 (Homo sapiens) (Q8IY84 whole entry): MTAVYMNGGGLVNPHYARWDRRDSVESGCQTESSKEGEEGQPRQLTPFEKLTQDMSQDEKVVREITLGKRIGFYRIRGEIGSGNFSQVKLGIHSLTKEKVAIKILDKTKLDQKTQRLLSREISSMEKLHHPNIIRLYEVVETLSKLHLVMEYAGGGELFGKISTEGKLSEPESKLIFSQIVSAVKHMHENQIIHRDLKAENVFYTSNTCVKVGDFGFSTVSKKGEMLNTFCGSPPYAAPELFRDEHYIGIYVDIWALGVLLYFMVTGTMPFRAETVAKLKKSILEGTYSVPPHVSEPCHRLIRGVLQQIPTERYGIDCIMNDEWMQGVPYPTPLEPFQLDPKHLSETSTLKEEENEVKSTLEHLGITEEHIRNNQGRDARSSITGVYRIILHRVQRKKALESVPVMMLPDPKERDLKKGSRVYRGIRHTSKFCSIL
Chain of Phosphatidylinositol 4,5-bisphosphate 3-kinase catalytic subunit delta isoform (Homo sapiens) (O00329 whole entry, canonical isoform): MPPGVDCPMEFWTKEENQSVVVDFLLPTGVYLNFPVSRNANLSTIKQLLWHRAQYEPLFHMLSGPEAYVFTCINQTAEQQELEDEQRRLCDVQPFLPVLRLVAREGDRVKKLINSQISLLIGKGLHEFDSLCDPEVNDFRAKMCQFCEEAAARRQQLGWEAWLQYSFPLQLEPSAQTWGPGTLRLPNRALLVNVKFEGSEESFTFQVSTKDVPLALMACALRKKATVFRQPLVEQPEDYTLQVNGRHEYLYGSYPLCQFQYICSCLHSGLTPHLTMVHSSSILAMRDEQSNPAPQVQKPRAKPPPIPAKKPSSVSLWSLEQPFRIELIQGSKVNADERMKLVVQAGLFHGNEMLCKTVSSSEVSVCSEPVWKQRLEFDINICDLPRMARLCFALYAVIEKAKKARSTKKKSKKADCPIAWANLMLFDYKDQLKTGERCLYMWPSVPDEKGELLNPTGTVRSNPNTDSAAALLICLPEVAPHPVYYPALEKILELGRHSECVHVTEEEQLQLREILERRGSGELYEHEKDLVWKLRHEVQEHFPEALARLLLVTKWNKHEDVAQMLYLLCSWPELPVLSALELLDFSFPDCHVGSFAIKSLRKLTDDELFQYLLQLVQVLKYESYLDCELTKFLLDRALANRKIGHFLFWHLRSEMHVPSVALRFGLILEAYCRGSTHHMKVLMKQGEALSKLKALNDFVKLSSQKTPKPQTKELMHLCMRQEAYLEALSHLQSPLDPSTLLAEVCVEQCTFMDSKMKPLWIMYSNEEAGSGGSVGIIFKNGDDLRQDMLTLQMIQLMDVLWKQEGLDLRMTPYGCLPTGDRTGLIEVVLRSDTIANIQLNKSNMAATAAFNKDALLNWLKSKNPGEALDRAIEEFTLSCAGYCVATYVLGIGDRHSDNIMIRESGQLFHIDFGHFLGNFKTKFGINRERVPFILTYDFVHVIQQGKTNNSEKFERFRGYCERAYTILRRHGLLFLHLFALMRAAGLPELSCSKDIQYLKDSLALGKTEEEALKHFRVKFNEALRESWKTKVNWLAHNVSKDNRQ
Chain of Mitogen-activated protein kinase 8 (Homo sapiens) (P45983 whole entry): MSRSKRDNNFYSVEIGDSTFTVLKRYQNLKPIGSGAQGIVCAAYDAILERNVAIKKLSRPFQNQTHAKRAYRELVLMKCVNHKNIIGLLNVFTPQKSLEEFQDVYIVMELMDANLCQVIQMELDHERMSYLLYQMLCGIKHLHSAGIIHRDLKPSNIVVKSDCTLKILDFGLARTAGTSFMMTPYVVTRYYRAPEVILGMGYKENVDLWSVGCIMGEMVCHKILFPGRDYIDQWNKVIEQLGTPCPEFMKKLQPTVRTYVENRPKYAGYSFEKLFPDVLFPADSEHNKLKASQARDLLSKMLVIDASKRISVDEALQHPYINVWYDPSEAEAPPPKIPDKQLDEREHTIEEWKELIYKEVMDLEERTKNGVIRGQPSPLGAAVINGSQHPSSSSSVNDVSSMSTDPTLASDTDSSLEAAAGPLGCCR

Cc1c(NC(=O)c2cc(C(N)=O)nc3cc(F)ccc23)c(C(F)(F)F)nn1Cc1ccc(C(C)(C)C)cc1 [BAY-588]
inactive: residual activity [1] 75% | residual activity [2] 100% | inhibition [3] 2.92% | residual activity [4] 90% | residual activity [5] 91% | residual activity [6] 100% | residual activity [7] 100% | residual activity [8] 100% | residual activity [9] 92% | residual activity [10] 100% | residual activity [11] 100% | residual activity [12] 100% | residual activity [13] 100% | residual activity [14] 100% | residual activity [15] 100% | inhibition [16] 37.2% | residual activity [17] 100% | residual activity [18] 100% | residual activity [19] 100% | residual activity [20] 100% | residual activity [21] 100% | residual activity [22] 100% | residual activity [23] 67% | residual activity [24] 100% | inhibition [25] 7.59% | residual activity [26] 78% | residual activity [27] 97% | residual activity [28] 100% | residual activity [29] 100% | residual activity [30] 91% | residual activity [31] 100% | residual activity [32] 100% | residual activity [33] 86% | residual activity [34] 100% | residual activity [35] 100% | residual activity [36] 95% | residual activity [37] 100% | residual activity [38] 100% | residual activity [39] 100% | residual activity [40] 87% | residual activity [41] 100% | residual activity [42] 100% | residual activity [43] 96% | residual activity [44] 100% | residual activity [45] 100%

Cc1c(NC(=O)c2cc(C(N)=O)nc3cc(F)ccc23)c(C(F)(F)F)nn1Cc1ccc(C#N)cc1 [BAY-876]
inactive: residual activity [1] 79% | residual activity [2] 100% | inhibition [3] 7.36% | residual activity [4] 96% | residual activity [5] 100% | residual activity [6] 81% | residual activity [7] 70% | residual activity [8] 88% | residual activity [9] 100% | residual activity [10] 100% | residual activity [11] 80% | residual activity [12] 100% | residual activity [13] 86% | residual activity [14] 76% | residual activity [15] 100% | inhibition [16] 28.2% | residual activity [17] 94% | residual activity [18] 56% | residual activity [19] 100% | residual activity [20] 86% | residual activity [21] 92% | residual activity [22] 77% | residual activity [23] 74% | residual activity [24] 86% | inhibition [25] -7.03% | residual activity [26] 86% | residual activity [27] 95% | residual activity [28] 66% | residual activity [29] 94% | residual activity [30] 81% | residual activity [31] 83% | residual activity [32] 100% | residual activity [33] 93% | residual activity [34] 96% | residual activity [35] 75% | residual activity [36] 80% | residual activity [37] 71% | residual activity [38] 98% | residual activity [39] 72% | residual activity [40] 78% | residual activity [41] 97% | residual activity [42] 81% | residual activity [43] 100% | residual activity [44] 91% | residual activity [45] 91%
